We go through four compounds from patent US7499894B2, “Cerebral programming” (priority 2001, dated 2009).

Test [1] concerns cultured network of cortical neurons. Put plainly: Spiking activity of cultured cortical network, intracellular and MEA recordings. To be noted: all three applied together: 5 μM bicuculin, 10 μM DNQX and 20 μM APV; cortical neurons from newborn rats on MEA. In kind it is cell-based, rat. As for the experimental part: Culture techniques. Cortical neurons are obtained from newborn rats within 24 hours from birth, following standard procedures. The cortex tissue is digested enzymatically and mechanically dissociated. The neurons are plated directly onto substrate-integrated multi-electrode array (MEA) dishes (see below). The cultures are bathed in MEM supplemented with heat-inactivated horse serum (5%), Glutamine (0.5 mM), Glucose (20 mM), and Gentamycin (10 μg/ml), and maintained in an atmosphere of 37° C., 5% CO2 and 95% air in a tissue culture incubator and during the recording phases. Half of the medium is exchanged twice a week. Experiments are performed in the third week after plating, thus allowing complete maturation of the neurons.
The electrical activity of the cultured network is dependent upon synaptic transmission: there are many published reports showing that the electrical activity in a cultured cortical network may be blocked by perfusion with the N-Methyl-D-aspartate (NMDA) receptor antagonist D-2-amino-5-phosphonovalerate (APV) and non-NMDA receptor antagonist 6-cyano-7-nitroquinoxaline-2,3-dion (CNQX). We repeated these experiments, using intracellular recordings as well as MEA recordings.
Electrophysiological methods. We use arrays of 60 Ti/Au/TiN electrodes, 30 μm in diameter, spaced 200 μm from each other (MultiChannelSystems (MCS), Reutlingen, Germany). The insulation layer (silicon nitride), is pretreated with poly-L-lysine forming a good surface for network development. A commercial 60-channel amplifier (B-MEA-1060, MCS, Reutlingen, Germany) with frequency limits of 10-3000 Hz and a gain of ×1024 is used. The B-MEA-1060 is connected to MCPPlus filter amplifiers (Alpha Omega, Nazareth, Israel) for further amplification (×10 to ×20). Stimulation through the MEA is performed using a dedicated 8-channel stimulus generator (MCS, Reutlingen, Germany). Micro-incubation environment is arranged, to support long-term recordings from MEA dishes. […]

The subject of test [2] is cultured cortical network. As to conditions: perfusion with APV and CNQX together; many published reports; cited from earlier work.

As to `CN1CCc2cc3c(cc2[C@H]1[C@@H]1OC(=O)c2c1ccc1c2OCO1)OCO3` [bicuculin], the “spiking activity within the cultured network” value in test [1] is recorded as “completely abolished”.
Take `N[C@H](CCCP(=O)(O)O)C(=O)O` [APV, D-2-amino-5-phosphonovalerate]: in test [2], the “electrical activity in a cultured cortical network” value is given as “blocked”. Moreover, the “spiking activity within the cultured network” value in test [1] is “completely abolished”.
With `N#Cc1cc2c(cc1[N+](=O)[O-])=NC(=O)C(=O)N=2` [CNQX, 6-cyano-7-nitroquinoxaline-2,3-dion], in test [2], the “electrical activity in a cultured cortical network” value is on record as “blocked”.
In the case of `O=[N+]([O-])c1cc2nc(O)c(O)nc2cc1[N+](=O)[O-]` [DNQX], in test [1], the “spiking activity within the cultured network” value was “completely abolished”.
